Assay results from the supplement of paper PMC10627819.

How the values were obtained:
Experiment in all cases: Bliss interaction score (quartile over a dose matrix) (fitness difference); higher = more antagonism (negative = synergy)
[1] = tested on: S. pneumoniae D39V
How it was run: (§1)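 OD595 was read at entry into stationary phase and expressed relative to the robust mean of the no-drug wells on the same plate, capped at 1. The resulting ratio is the fitness value. The Bliss score, observed fitness minus product-based expected fitness with single-drug fitness inferred from combinations, is summarised by quartiles over technical, biological and donor/recipient replicates.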

[2] = tested on: S. aureus Newman
How it was run: as §1

[3] = tested on: S. aureus DSM 20231
How it was run: as §1

[4] = tested on: B. subtilis 168
How it was run: as §1
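Also: first quartile when negative (synergy) and third quartile when positive (antagonism).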

Row | Structure (SMILES) | Bliss interaction score [1] | Bliss interaction score [2] | Bliss interaction score [3] | Bliss interaction score [4] | Bliss interaction score ([1]; main component drawn) | Bliss interaction score ([2]; main component drawn) | Bliss interaction score ([3]; main component drawn) | Bliss interaction score ([4]; main component drawn)
1 | CCC[C@@H]1C[C@@H](C(=O)N[C@@H]([C@H]2O[C@H](SC)[C@H](O)[C@@H](O)[C@H]2O)[C@H](C)Cl)N(C)C1 [Clindamycin] + CO[C@@]12[C@H](COC(N)=O)C3=C(C(=O)C(C)=C(N)C3=O)N1C[C@@H]1N[C@@H]12 [MitomycinC] | 0.0747 | 0.0745 | -0.0349 | 0.0747 |  |  |  | 
2 | C[C@@H](O)[C@H]1C(=O)N2C(C(=O)O)=C(SCCNC=N)C[C@H]12 [Imipenem] + CCCCCCCCCC(=O)N[C@@H]1[C@H]([C@@H]([C@H](O[C@H]1OC2=C3C=C4C=C2OC5=C(C=C(C=C5)[C@H]([C@H]6C(=O)N[C@@H](C7=C(C(=CC(=C7)O)OC8[C@H]([C@H]([C@@H]([C@H](O8)CO)O)O)O)C9=C(C=CC(=C9)[C@H](C(=O)N6)NC(=O)[C@@H]4NC(=O)[C@@H]1C2=CC(=CC(=C2)OC2=C(C=CC(=C2)[C@H](C(=O)N[C@H](CC2=CC(=C(O3)C=C2)Cl)C(=O)N1)N)O)O)O)C(=O)O)O[C@H]1[C@@H]([C@H]([C@@H]([C@H](O1)CO)O)O)NC(=O)C)Cl)CO)O)O [Teicoplanin] |  |  |  |  | -0.102 | 0.0599 | 0.0578 | -0.0771
3 | CC(=O)OC[C@H]1O[C@@H]([S-])[C@H](OC(C)=O)[C@@H](OC(C)=O)[C@@H]1OC(C)=O.CCP(CC)CC.[Au+] [Auranofin] + O=C(O)[C@H]1/C(=C/CO)O[C@@H]2CC(=O)N21 [Clavulanic] | -0.0729 | 0.167 | -0.188 | -0.0681 |  |  |  | 
4 | N[C@@H]1CONC1=O [CycloserineD] + C[C@@H]1O[C@@H]1P(=O)(O)O [Fosfomycin] | 0.0808 | -0.033 | -0.0611 | -0.046 |  |  |  | 
5 | O=C1CN(/N=C/c2ccc([N+](=O)[O-])o2)C(=O)N1 [Nitrofurantoin] + CN[C@H](CC(C)C)C(=O)N[C@H]1C(=O)N[C@@H](CC(N)=O)C(=O)N[C@H]2C(=O)N[C@H]3C(=O)N[C@H](C(=O)N[C@H](C(=O)O)c4cc(O)cc(O)c4-c4cc3ccc4O)[C@H](O[C@H]3C[C@](C)(N)[C@@H](O)[C@H](C)O3)c3ccc(c(Cl)c3)Oc3cc2cc(c3O[C@@H]2O[C@H](CO)[C@@H](O)[C@H](O)[C@H]2O[C@H]2C[C@](C)(NCc3ccc(-c4ccc(Cl)cc4)cc3)[C@@H](O)[C@H](C)O2)Oc2ccc(cc2Cl)[C@H]1O [Oritavancin] | -0.0352 | -0.118 | -0.0379 | 0.0189 |  |  |  | 
6 | CC(=O)O[C@H]1C[C@@]2(C)[C@@H](C[C@@H](O)[C@H]3[C@@]4(C)CC[C@@H](O)[C@@H](C)[C@@H]4CC[C@@]32C)/C1=C(\CCC=C(C)C)C(=O)O [Fusidic acid] + C[n+]1ccc(-c2cc[n+](C)cc2)cc1 [Paraquat] | 0.0439 | 0.0284 | 0.0328 | 0.0317 |  |  |  | 
7 | CCC[C@@H]1C[C@@H](C(=O)N[C@@H]([C@H]2O[C@H](SC)[C@H](O)[C@@H](O)[C@H]2O)[C@H](C)Cl)N(C)C1 [Clindamycin] + CN(C)[C@@H]1C(O)=C(C(N)=O)C(=O)[C@@]2(O)C(O)=C3C(=O)c4c(O)ccc(Cl)c4[C@@](C)(O)[C@H]3C[C@@H]12 [Clortetracycline] | -0.0954 | -0.191 | -0.0617 | -0.212 |  |  |  | 
8 | CC(=O)O[C@H]1C[C@@]2(C)[C@@H](C[C@@H](O)[C@H]3[C@@]4(C)CC[C@@H](O)[C@@H](C)[C@@H]4CC[C@@]32C)/C1=C(\CCC=C(C)C)C(=O)O [Fusidic acid] + CCC(C)C1C(=O)NC(=C)C(=O)NC(C(=O)NC(CSCC(C(=O)N1)NC(=O)/C(=C/C)/NC(=O)C(C(C)CC)N)C(=O)NC2C(SCC(NC(=O)CNC(=O)C3CCCN3C2=O)C(=O)NC(CCCCN)C(=O)NC4C(SCC(NC(=O)CNC(=O)C(NC(=O)C(NC(=O)C(NC(=O)CNC4=O)C)CC(C)C)CCSC)C(=O)NC(CC(=O)N)C(=O)NC(CCSC)C(=O)NC(CCCCN)C(=O)NC5C(SCC6C(=O)NC(C(=O)NC(CSC(C(C(=O)N6)NC(=O)C(NC5=O)C)C)C(=O)NC(CO)C(=O)NC(C(C)CC)C(=O)NC(CC7=CN=CN7)C(=O)NC(C(C)C)C(=O)NC(=C)C(=O)NC(CCCCN)C(=O)O)CC8=CN=CN8)C)C)C)CC(C)C [Nisin] |  |  |  |  | -0.0281 | -0.0346 | 0.0299 | -0.0332
9 | N[C@@H]1CONC1=O [CycloserineD] + Cc1ncc([N+](=O)[O-])n1CCO [Metronidazole] | -0.0766 | 0.0557 | 0.0317 | -0.0606 |  |  |  | 
10 | O=C1CN(/N=C/c2ccc([N+](=O)[O-])o2)C(=O)N1 [Nitrofurantoin] + CC1(C)S[C@@H]2[C@H](NC(=O)Cc3ccccc3)C(=O)N2[C@H]1C(=O)O [PenicillinG] | 0.13 | 0.0397 | -0.0568 | -0.0696 |  |  |  | 
